Test [1] has as its target ATR/ATRIP complex (Homo sapiens (Human), UniProt Q13535). Description: ATR/ATRIP enzymatic assay (Caliper-based). The class given is biochemical. As to conditions: FAM-labeled RAD17 peptide, ATP; read-out: ATR/ATRIP Enzyme IC50. The method in brief:
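FLAG-TEV-ATR/His6-ATRIP co-expressed in HEK293 and anti-FLAG purified. Compound preincubated 30 min at 28 °C with enzyme (2x solution 4 nM), then FAM-RAD17 peptide (2x solution 10 uM, 2 μM ATP) added for 6 h at 28 °C; HEPES pH 8, 10 mM MnCl2. Caliper conversion read-out, IC50 from four-parameter fit.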

In test [2] the test system is ATR-driven phosphorylation of Chk1 kinase at Serine 345 in HT-29 colorectal adenocarcinoma cells. Description: pCHK1 cellular assay (CHK1 p-Ser345 AlphaScreen SureFire). The class given is cell-based. The conditions noted are these: 4-nitroquinoline N-oxide 12 uM, read-out: Cell IC50 (pCHK1 IC50 values). The method in brief:
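HT-29 cells seeded overnight, treated with 1:3 serially diluted compound for 90 minutes at 37° C., then 12 uM (final) 4-nitroquinoline N-oxide for 120 minutes. Lysates read for Chk1 p-Ser345 by AlphaScreen SureFire; IC50 from four-parameter logistic fit, normalized to DMSO (max) and 5 uM ATR inhibitor (min).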

[3] abbreviates: Homo sapiens, HT-29, HT-29 cells.

Read-outs that look alike come from different tables or passages of the source.

Sequence of ATR/ATRIP complex (Q13535 whole entry): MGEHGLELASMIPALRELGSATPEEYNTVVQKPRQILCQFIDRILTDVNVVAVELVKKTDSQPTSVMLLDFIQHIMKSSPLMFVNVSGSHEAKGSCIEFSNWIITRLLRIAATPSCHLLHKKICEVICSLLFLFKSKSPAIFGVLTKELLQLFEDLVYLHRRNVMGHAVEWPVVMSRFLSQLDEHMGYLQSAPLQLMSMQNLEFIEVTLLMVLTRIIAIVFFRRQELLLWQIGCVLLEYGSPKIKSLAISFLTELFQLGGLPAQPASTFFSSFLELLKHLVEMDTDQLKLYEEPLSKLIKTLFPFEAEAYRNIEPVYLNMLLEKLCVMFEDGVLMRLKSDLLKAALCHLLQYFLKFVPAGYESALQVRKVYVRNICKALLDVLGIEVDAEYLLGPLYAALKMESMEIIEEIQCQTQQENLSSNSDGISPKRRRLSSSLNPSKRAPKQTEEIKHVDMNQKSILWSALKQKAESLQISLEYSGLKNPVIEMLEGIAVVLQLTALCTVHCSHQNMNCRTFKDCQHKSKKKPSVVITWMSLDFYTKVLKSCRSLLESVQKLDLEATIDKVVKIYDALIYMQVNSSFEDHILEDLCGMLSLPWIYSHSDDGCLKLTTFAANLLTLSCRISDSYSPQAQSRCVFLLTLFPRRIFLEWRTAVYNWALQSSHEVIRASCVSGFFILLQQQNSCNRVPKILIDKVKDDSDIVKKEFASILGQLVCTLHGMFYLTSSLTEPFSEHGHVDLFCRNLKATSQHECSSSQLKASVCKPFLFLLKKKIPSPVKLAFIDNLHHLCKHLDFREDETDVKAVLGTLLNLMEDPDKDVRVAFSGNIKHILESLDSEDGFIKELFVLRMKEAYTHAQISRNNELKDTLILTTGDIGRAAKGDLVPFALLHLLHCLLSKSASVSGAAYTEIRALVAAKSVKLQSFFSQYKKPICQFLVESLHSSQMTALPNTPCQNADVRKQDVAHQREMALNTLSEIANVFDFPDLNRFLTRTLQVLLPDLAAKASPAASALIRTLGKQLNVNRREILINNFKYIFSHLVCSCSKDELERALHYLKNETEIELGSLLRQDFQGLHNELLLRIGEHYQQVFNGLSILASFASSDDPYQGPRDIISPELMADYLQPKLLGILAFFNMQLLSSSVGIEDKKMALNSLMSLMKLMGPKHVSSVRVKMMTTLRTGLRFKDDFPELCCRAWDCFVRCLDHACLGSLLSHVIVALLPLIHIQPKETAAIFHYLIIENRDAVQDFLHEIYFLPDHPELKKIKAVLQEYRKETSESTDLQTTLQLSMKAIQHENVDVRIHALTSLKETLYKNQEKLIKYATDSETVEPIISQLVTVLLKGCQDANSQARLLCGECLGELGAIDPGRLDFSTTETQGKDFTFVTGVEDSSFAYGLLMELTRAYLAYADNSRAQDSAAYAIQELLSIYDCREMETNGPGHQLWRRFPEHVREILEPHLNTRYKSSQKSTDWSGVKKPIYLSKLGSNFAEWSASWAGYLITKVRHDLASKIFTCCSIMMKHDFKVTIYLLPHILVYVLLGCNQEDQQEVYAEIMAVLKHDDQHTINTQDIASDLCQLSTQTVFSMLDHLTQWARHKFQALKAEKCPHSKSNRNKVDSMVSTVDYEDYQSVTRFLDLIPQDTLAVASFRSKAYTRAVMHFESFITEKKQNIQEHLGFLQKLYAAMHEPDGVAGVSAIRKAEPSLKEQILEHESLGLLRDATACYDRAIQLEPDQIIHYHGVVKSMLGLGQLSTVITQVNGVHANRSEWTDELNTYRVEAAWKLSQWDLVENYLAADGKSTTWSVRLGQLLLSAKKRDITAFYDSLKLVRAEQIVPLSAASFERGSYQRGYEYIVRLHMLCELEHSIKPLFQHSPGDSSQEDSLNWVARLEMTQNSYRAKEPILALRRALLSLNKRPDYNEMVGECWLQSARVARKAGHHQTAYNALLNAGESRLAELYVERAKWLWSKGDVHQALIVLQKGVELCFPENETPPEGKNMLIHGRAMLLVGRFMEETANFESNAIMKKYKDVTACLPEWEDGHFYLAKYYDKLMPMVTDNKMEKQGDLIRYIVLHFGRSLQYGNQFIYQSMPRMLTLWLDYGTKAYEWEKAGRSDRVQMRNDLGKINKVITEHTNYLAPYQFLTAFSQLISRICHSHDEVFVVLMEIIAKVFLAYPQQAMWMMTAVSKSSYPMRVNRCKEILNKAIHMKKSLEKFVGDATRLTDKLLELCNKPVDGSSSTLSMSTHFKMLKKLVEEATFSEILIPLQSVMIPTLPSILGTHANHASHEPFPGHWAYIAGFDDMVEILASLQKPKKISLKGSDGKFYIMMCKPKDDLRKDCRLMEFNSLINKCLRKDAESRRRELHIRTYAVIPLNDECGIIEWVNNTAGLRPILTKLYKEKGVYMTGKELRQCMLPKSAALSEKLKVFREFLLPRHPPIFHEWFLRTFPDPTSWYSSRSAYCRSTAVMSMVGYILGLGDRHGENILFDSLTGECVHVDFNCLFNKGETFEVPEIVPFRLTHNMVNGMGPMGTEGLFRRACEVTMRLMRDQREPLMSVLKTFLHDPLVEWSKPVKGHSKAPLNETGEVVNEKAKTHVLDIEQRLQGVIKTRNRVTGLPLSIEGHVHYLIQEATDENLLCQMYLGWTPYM
Sequence of ATR/ATRIP complex (Q8WXE1 whole entry partner): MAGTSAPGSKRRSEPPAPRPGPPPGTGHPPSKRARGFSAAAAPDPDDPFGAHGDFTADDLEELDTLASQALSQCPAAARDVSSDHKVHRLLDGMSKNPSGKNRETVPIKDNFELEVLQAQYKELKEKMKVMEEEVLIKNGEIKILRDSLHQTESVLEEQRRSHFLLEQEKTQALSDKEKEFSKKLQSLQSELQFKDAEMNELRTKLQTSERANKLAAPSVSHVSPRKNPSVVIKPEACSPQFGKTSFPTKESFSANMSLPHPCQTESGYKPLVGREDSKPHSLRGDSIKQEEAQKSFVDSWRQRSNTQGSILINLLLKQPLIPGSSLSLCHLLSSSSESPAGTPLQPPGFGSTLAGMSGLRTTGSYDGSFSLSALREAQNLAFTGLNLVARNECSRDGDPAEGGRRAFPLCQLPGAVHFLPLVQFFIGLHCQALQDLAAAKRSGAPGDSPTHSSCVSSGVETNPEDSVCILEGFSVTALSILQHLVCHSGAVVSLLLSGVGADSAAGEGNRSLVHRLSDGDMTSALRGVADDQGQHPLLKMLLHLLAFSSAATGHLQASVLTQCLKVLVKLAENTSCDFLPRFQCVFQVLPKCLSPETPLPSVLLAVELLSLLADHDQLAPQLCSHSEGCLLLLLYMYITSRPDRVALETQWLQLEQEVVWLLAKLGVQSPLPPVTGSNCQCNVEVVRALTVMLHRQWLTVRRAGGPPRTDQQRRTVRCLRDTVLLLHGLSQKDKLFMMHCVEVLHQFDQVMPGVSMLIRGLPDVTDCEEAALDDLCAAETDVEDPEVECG

On to `C[C@@H]1Cc2ncnc(N3CCCC(C(C)(C)O)C3)c2CN1c1cc(Cl)nc2[nH]ccc12` (stereo in doubt) [Example 45, 2-((R)-1-((R)-6-(6-Chloro-1H-pyrrolo[2,3-b]pyridin-4-yl)-7-methyl-5,6,7,8-tetrahydropyrido[4,3-d]pyrimidin-4-yl)piperidin-3-yl)propan-2-ol], for which the IC50 in test [1] amounted to 378 nM; in test [2] (setting [3]), 39 nM.
For `C[C@@H]1Cc2ncnc(C3=C[C@@H]4CC[C@H](C3)N4S(C)(=O)=O)c2CN1c1cc(Cl)nc2[nH]ccc12` [Example 60, (R)-6-(6-chloro-1H-pyrrolo[2,3-b]pyridin-4-yl)-7-methyl-4-((1S,5R)-8-(methylsulfonyl)-8-azabicyclo[3.2.1]oct-2-en-3-yl)-5,6,7,8-tetra-hydropyrido[4,3-d]-pyrimidine] the same measures were 66 nM and 22 nM.
For `C[C@@H]1Cc2ncnc(N3CCC[C@@H](NS(C)(=O)=O)C3)c2CN1c1cc(Cl)nc2[nH]ccc12` [Example 72, N-((R)-1-((R)-6-(6-chloro-1H-pyrrolo[2,3-b]-pyridin-4-yl)-7-methyl-5,6,7,8-tetrahydropyrido-[4,3-d]pyrimidin-4-yl)-piperidin-3-yl)-methanesulfonamide] the same measures were 715 nM and 119 nM.
Turning to `C[C@@H]1Cc2ncnc([C@@H]3CCN(S(C)(=O)=O)C3)c2CN1c1ccnc2[nH]ccc12` [Example 57a, (R)-7-methyl-4-((R)-1-(methylsulfonyl)pyrrolidin-3-yl)-6-(1H-pyrrolo[2,3-b]pyridin-4-yl)-5,6,7,8-tetrahydropyrido[4,3-d]pyrimidine], the IC50 in test [1] is 840 nM; in test [2] (setting [3]), 183 nM.
As for `C[C@@H]1Cc2ncnc([C@@H]3CCN(S(C)(=O)=O)C(C)(C)C3)c2CN1c1ccnc2[nH]ccc12` (single isomer, unassigned) [Example 48a], the IC50 came out at 3330 nM in test [1] and 758 nM in test [2] (setting [3]).
Taken in the same sequence, the figures for `COC1CCN(c2ncnc3c2CN(c2cc(Cl)nc4[nH]ccc24)[C@H](C)C3)CC1` [Example 68, (R)-6-(6-chloro-1H-pyrrolo[2,3-b]pyridin-4-yl)-4-(4-methoxy-piperidin-1-yl)-7-methyl-5,6,7,8-tetrahydro-pyrido[4,3-d]pyrimidine] were 475 nM and 48 nM.
For `C[C@@H]1Cc2ncnc(C3CCN(S(C)(=O)=O)CC3)c2CN1c1cc(OC2CC2)nc2[nH]ccc12` [Example 97, (R)-6-(6-cyclopropoxy-1H-pyrrolo[2,3-b]pyridin-4-yl)-7-methyl-4-(1-(methylsulfonyl)piperidin-4-yl)-5,6,7,8-tetrahydro-pyrido[4,3-d]pyrimidine] the same measures were 93 nM and 13 nM.
In the case of `C[C@@H]1Cc2ncnc(C3CCN(S(C)(=O)=O)CC3)c2CN1c1nccc2[nH]ccc12` [Example 59, (R)-7-methyl-4-(1-(methylsulfonyl)piperidin-4-yl)-6-(1H-pyrrolo[3,2-c]pyridin-4-yl)-5,6,7,8-tetrahydropyrido[4,3-d]pyrimidine], the IC50 amounted to 2650 nM in test [1] and 555 nM in test [2] (setting [3]).
Consider `CC(C)Oc1cc(N2Cc3c(ncnc3C3CCN(S(C)(=O)=O)CC3)C[C@H]2C)c2cc[nH]c2n1` [Example 93, (R)-6-(6-isopropoxy-1H-pyrrolo[2,3-b]pyridin-4-yl)-7-methyl-4-(1-(methylsulfonyl)piperidin-4-yl)-5,6,7,8-tetrahydro-pyrido[4,3-d]pyrimidine], for which the IC50 was found to be 87 nM in test [1] and 15 nM in test [2] (setting [3]).
For `C[C@@H]1Cc2ncnc(N3CCC(S(C)(=O)=O)CC3)c2CN1c1ccnc2[nH]ccc12` [Example 8, (R)-7-Methyl-4-(4-(methylsulfonyl)piperidin-1-yl)-6-(1H-pyrrolo[2,3-b]pyridin-4-yl)-5,6,7,8-tetrahydropyrido[4,3-d]pyrimidine bis(trifluoroacetate)] the same measures were 979 nM and 127 nM.
Take `C[C@@H]1Cc2ncnc(C3CN(S(C)(=O)=O)C3)c2CN1c1cc(Cl)nc2[nH]ccc12` [Example 47, (R)-6-(6-Chloro-1H-pyrrolo[2,3-b]pyridin-4-yl)-7-methyl-4-(1-(methylsulfonyl)azetidin-3-yl)-5,6,7,8-tetrahydropyrido[4,3-d]pyrimidine]: the values for the IC50 in test [1] and in test [2] (setting [3]) were 287 nM and 30 nM, respectively.
Taken in the same sequence, the figures for `C[C@@H]1Cc2ncnc(N3CC(O)C3)c2CN1c1cc(Cl)nc2[nH]ccc12` [Example 77, (R)-1-(6-(6-chloro-1H-pyrrolo[2,3-b]pyridin-4-yl)-7-methyl-5,6,7,8-tetrahydropyrido[4,3-d]-pyrimidin-4-yl)azetidin-3-ol] were 320 nM and 21 nM.
For `C[C@@H]1Cc2ncnc(N3CC(C#N)C3)c2CN1c1ccnc2[nH]ccc12` [Example 81, (R)-1-(7-methyl-6-(1H-pyrrolo[2,3-b]pyridin-4-yl)-5,6,7,8-tetrahydro-pyrido[4,3-d]pyrimidin-4-yl)azetidine-3-carbonitrile] the same measures were 246 nM and 38 nM.
In the case of `C[C@@H]1Cc2ncnc(C3C[C@H]4CC[C@@H](C3)N4S(C)(=O)=O)c2CN1c1cc(Cl)nc2[nH]ccc12` (single isomer, unassigned) [Example 11b], the IC50 in test [1] is 329 nM; in test [2] (HT-29 cells) it was 29 nM.
Regarding `COC(=O)N1CCC(c2ncnc3c2CN(c2cc(Cl)nc4[nH]ccc24)[C@H](C)C3)CC1` [Example 25, methyl 4-[(7R)-6-{6-chloro-1H-pyrrolo[2,3-b]pyridin-4-yl}-7-methyl-5H,6H,7H,8H-pyrido [4,3-d]pyrimidin-4-yl]piperidine-1-carboxylate], the IC50 in test [1] was 899 nM; in test [2] (setting [3]) it was 28 nM.
Taken in the same sequence, the figures for `CNC(=O)[C@@H]1CCCN(c2ncnc3c2CN(c2cc(Cl)nc4[nH]ccc24)[C@H](C)C3)C1` [Example 44, (R)-1-((R)-6-(6-Chloro-1H-pyrrolo[2,3-b]pyridin-4-yl)-7-methyl-5,6,7,8-tetrahydropyrido[4,3-d]pyrimidin-4-yl)-N-methylpiperidine-3-carboxamide] were 1040 nM and 92 nM.
For `CCC1(O)CCN(c2ncnc3c2CN(c2cc(Cl)nc4[nH]ccc24)[C@H](C)C3)CC1` [Example 46, (R)-1-(6-(6-Chloro-1H-pyrrolo[2,3-b]pyridin-4-yl)-7-methyl-5,6,7,8-tetrahydropyrido[4,3-d]pyrimidin-4-yl)-4-ethylpiperidin-4-ol] the same measures were 282 nM and 21 nM.
For `C[C@@H]1Cc2ncnc(N3CCC4(CC3)NC(=O)NC4=O)c2CN1c1cc(Cl)nc2[nH]ccc12` [Example 61, (R)-8-(6-(6-chloro-1H-pyrrolo[2,3-b]pyridin-4-yl)-7-methyl-5,6,7,8-tetrahydropyrido[4,3-d]pyrimidin-4-yl)-1,3,8-triazaspiro[4.5]decane-2,4-dione] the same measures were 514 nM and 570 nM.
For the molecule `C[C@@H]1Cc2ncnc(C3CCN(S(C)(=O)=O)CC3)c2CN1c1cc(OCC(F)(F)F)nc2[nH]ccc12` [Example 96, (R)-7-methyl-4-(1-(methylsulfonyl)piperidin-4-yl)-6-(6-(2,2,2-tri-fluoroethoxy)-1H-pyrrolo[2,3-b]pyridin-4-yl)-5,6,7,8-tetrahydro-pyrido[4,3-d]pyrimidine], the IC50 in test [1] worked out at 321 nM; in test [2] (setting [3]), 22 nM.

For the origin of these results see US10421765B2, “Tetrahydropyrido[4,3-d]pyrimidine inhibitors of ATR kinase” (Board of Regents, The University of Texas System, priority 2017, dated 2019).
